# Experimental data: article PMC9007462 (Journal of Medicinal Chemistry, 2022)
# How the values were obtained:
# PC3 = assay: MTT chemosensitivity assay, PC3; format: cell-based, human; conditions: ± SD, at least three independent experiments
# Description: (§1) MTT (3-(4, 5-dimethyl-2-thiazolyl)-2, 5-diphenyl-2H-tetrazolium bromide) assay was used to determine cell viability.[64] Immortalized PCa cells (PC-3, Du-145, and LNCaP) were seeded in 96-well plates and allowed to adhere overnight at 37 °C, 5% CO2, and 100% humidity. […] After 96 h of exposure, 200 μL of MTT (Sigma) solution (0.5 mg/mL) was added to each well and incubated at 37 °C for 4 h. The formazan crystals were dissolved in DMSO (Sigma), and the absorbance was read using a microplate reader (Multiskan EX; Thermo Fisher Scientific) at 540 nm. Data analysis was performed using Microsoft Excel 2013 and GraphPad Prism software.
# DU145 = assay: MTT chemosensitivity assay, DU145; format: cell-based, human; conditions: ± SD, at least three independent experiments
# Description: as §1
# LNCaP = assay: MTT chemosensitivity assay, LNCaP; format: cell-based, human; conditions: 96 h exposure, ± SD, at least three independent experiments
# Description: as §1
# Human ALDH3A1 [1] = molecular target: T1, Human ALDH3A1 (Homo sapiens, UniProt P30838); assay: DEAB analogues as substrates of ALDH3A1 (substrate activity and kinetics); format: biochemical
# T1 construct: made in house
# T1 sequence (P30838 1-453): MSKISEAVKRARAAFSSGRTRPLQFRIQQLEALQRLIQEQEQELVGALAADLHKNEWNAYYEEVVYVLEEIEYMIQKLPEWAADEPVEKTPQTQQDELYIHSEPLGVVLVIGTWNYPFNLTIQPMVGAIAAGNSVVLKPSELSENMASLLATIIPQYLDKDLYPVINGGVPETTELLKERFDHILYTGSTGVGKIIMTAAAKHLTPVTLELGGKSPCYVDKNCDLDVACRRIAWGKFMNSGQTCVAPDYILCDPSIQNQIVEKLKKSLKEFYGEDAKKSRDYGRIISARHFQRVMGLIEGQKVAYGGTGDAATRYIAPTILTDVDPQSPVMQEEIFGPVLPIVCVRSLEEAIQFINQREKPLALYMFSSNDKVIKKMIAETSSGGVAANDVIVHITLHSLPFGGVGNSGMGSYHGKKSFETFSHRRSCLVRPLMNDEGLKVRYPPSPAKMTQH
# Description: (§2) Human ALDH1A1, ALDH1A3, and ALDH3A1 were cloned and recombinantly expressed from the pET-30 Xa/LIC vector. Protein purification was achieved by affinity chromatography on a nickel-charged chelating Sepharose Fast Flow 5-mL column (His Trap column, Cytiva), which specifically binds the protein due to its N-terminal (His)6 tag, using an ÄKTA FPLC system (Cytiva), as previously described.[55] Enzymes including the His tag were stored at −80 °C in 20 mM Tris/HCl and 0.5 M NaCl, pH 8.0, until use. Reaction buffers were as follows: ALDH1A1 was assayed in 50 mM HEPES, 0.5 mM EDTA, and 0.5 mM DTT, pH 8.0; ALDH1A3 was assayed in 50 mM HEPES, 30 mM MgCl2, and 5 mM DTT, pH 8.0; and ALDH3A1 was assayed in 50 mM Tris–HCl and 5 mM DTT, pH 8.0. Activity under standard conditions was measured fluorimetrically at 25 °C using a Cary Eclipse (Varian) fluorimeter to follow the purification procedure and to check the enzyme concentration before each kinetic experiment. The fluorescence of NADH was characterized at 460 nm with excitation at 340 nm, and 5 μM NAD(P)H was added as an internal standard to obtain the absolute reaction rates.[55] Standard activity was measured at saturating concentrations of substrate using 30 μM hexanal (ALDH1A1), 250 μM hexanal (ALDH1A3), or 250 μM 4-NBA (ALDH3A1). NAD^+ was 500 μM for ALDH1A1 and ALDH1A3, and NADP^+ was 1 mM for ALDH3A1.
# According to their structure with a carbonyl group, compounds were tested for their substrate properties against ALDH1A1, ALDH1A3, and ALDH3A1. […] Results are expressed as the percentage of activity at 10 μM versus the activity at 10 μM of their standard substrate (hexanal or 4-NBA). Values are expressed as the mean ± SE.
# To calculate the Km value of compound 18 as a substrate for ALDH3A1, several concentrations of compound 18 were used. Experimental values were fitted to the adaptation of the Michaelis–Menten equation for substrate inhibition [drawing 1] and shown as the mean ± SE.
# Human ALDH1A1 = molecular target: T2, Human ALDH1A1 (Homo sapiens, UniProt P00352); assay: Inhibition screening, single point at 10 μM, ALDH1A1; format: biochemical; conditions: 10 μM compound; 5 μM hexanal (Figure S1)
# T2 construct: made in house
# T2 sequence (P00352 1-501): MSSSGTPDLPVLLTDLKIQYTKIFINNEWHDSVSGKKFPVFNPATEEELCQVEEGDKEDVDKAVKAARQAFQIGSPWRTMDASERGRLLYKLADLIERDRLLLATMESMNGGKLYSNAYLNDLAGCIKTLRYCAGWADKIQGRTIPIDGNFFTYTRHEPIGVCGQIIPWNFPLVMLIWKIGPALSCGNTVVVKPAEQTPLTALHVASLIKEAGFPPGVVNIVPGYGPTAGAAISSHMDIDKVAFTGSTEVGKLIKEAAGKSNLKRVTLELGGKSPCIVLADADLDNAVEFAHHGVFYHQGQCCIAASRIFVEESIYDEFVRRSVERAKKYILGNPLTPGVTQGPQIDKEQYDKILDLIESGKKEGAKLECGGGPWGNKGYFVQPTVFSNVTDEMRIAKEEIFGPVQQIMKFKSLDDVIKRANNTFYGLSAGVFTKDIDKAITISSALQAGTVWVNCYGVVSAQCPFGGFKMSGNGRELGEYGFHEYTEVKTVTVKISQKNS
# Description: as §2
# All compounds tested were dissolved in DMSO and assayed at a final concentration of 1% (v/v) DMSO. […] For the initial screening, the enzymatic activity was measured in 96-well plates (final volume of 200 μL) in a Victor 3 Multilabel Plate Reader (Perkin Elmer), by monitoring the fluorescence of the NAD(P)H produced during the reaction (excitation at 340 nm and emission at 460 nm). Alternatively, the enzymatic activity was measured in a Varian Cary 400 UV–vis spectrophotometer, by monitoring the increase in the absorbance of NAD(P)H at 340 nm (ε = 6.22 mM^–1·cm^–1) or in a Cary Eclipse Varian fluorimeter, as described above. […] For ALDH1A1, 5 μM hexanal (Sigma) was used. For ALDH1A3, 10 and 250 μM hexanal (Sigma) were used. For ALDH3A1, 4-NBA (Sigma) was used at 31 and 250 μM. All substrates were prepared in the corresponding assay buffer at a concentration of 2 mM and further diluted to reach the final concentrations required per experiment. The concentration of the enzyme was kept from 50- to 100-fold lower than that of the substrate for all enzymatic assays.
# Human ALDH3A1 [2] = molecular target: T1, Human ALDH3A1; assay: ALDH3A1 inhibition, IC50, Ki and type of inhibition; format: biochemical; conditions: 31 μM 4-NBA as substrate; mean ± SE
# Description: as §2
# In order to determine the IC50 values, reaction rates were determined at various concentrations of inhibitor at a fixed concentration of substrate. As substrates for ALDH1A1, ALDH1A3, and ALDH3A1, 5 μM hexanal, 6 μM hexanal, and 31 μM 4-NBA, respectively, were used. The IC50 values were calculated by nonlinear fitting of the obtained data to a sigmoidal plot using GraFit 5.0 (Erithacus software), with the following 4-parameter equation [drawing 2] , where y is the specific activity, x is the inhibitor concentration, background is the minimum y value, range is the fitted uninhibited value minus the background, and s is the slope factor. Values are expressed as the mean ± SE.
# Activity assays to determine the type of inhibition and Ki value were performed using various substrate and inhibitor concentrations maintaining the same conditions as for the IC50 experiments and using GraFit 5.0 for data processing. The data of enzymatic activities at different inhibitor concentrations were fitted to the Michaelis–Menten equation to determine the values of Km and Vmax. Next, results were fitted to the equations for competitive, given by [drawing 3]; noncompetitive, given by [drawing 4]; uncompetitive, given by [drawing 5]; and mixed, given by [drawing 6] .[56] The type of inhibition was selected based on the lowest error value. Parameters were expressed as the mean ± SE.
# Human ALDH1A3 = molecular target: T3, Human ALDH1A3 (Homo sapiens, UniProt P47895); assay: ALDH1A3 inhibition, IC50, Ki and type of inhibition; format: biochemical; conditions: for IC50: 6 μM hexanal as substrate; for IC50 / Ki: mean ± SE; for type of inhibition ALDH1A3 / Ki: hexanal as substrate; for Ki: fit to competitive inhibition equation
# T3 construct: made in house
# T3 sequence (P47895 1-512): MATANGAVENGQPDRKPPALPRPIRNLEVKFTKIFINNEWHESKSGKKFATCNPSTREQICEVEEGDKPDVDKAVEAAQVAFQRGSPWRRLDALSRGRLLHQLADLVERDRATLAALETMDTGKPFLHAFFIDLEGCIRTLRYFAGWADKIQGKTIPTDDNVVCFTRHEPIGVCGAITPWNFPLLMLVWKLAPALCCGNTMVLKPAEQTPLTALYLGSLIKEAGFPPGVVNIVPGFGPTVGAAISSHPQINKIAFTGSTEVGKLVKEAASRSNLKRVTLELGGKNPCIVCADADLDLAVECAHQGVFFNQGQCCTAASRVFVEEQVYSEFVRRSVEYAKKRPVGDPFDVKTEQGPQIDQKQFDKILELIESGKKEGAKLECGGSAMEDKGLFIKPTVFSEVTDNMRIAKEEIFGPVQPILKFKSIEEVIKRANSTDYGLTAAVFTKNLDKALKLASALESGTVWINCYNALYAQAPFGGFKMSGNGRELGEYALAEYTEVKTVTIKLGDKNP
# Description: Human ALDH1A1, ALDH1A3, and ALDH3A1 were cloned and recombinantly expressed from the pET-30 Xa/LIC vector. Protein purification was achieved by affinity chromatography on a nickel-charged chelating Sepharose Fast Flow 5-mL column (His Trap column, Cytiva), which specifically binds the protein due to its N-terminal (His)6 tag, using an ÄKTA FPLC system (Cytiva), as previously described.[55] Enzymes including the His tag were stored at −80 °C in 20 mM Tris/HCl and 0.5 M NaCl, pH 8.0, until use. Reaction buffers were as follows: ALDH1A1 was assayed in 50 mM HEPES, 0.5 mM EDTA, and 0.5 mM DTT, pH 8.0; […] Activity under standard conditions was measured fluorimetrically at 25 °C using a Cary Eclipse (Varian) fluorimeter to follow the purification procedure and to check the enzyme concentration before each kinetic experiment. […] In order to determine the IC50 values, reaction rates were determined at various concentrations of inhibitor at a fixed concentration of substrate. […] Values are expressed as the mean ± SE. […] The data of enzymatic activities at different inhibitor concentrations were fitted to the Michaelis–Menten equation to determine the values of Km and Vmax. Next, results were fitted to the equations for competitive, given by [drawing 3]; noncompetitive, given by [drawing 4]; uncompetitive, given by [drawing 5]; and mixed, given by [drawing 6] .[56] The type of inhibition was selected based on the lowest error value. Parameters were expressed as the mean ± SE.
# [3] = Homo sapiens, PC-3, 96 h exposure
# [4] = Homo sapiens, DU-145, 96 h exposure
IC50 (PC3; [3]) [µM],IC50 (DU145; [4]) [µM],"IC50 (LNCaP; Homo sapiens, LNCaP) [µM]",IC50 (Human ALDH1A3) [µM],Compound,also measured
84 ± 6,84 ± 12,46 ± 10,–,"O=Cc1ccc(N2CCCCC2)c(Br)c1 [Compound 23, 3-Bromo-4-(piperidin-1-yl)benzaldehyde]",–
–,–,–,–,"O=Cc1ccc([N+](=O)[O-])cc1 [Compound 4-NBA, 4-Nitrobenzaldehyde, reference compound]",Km (Human ALDH3A1 [1]; mean ± SE): 31 ± 4.9 µM; kcat as ALDH3A1 substrate (Human ALDH3A1 [1]; mean ± SE): 359 ± 14 min^–1; Km fold higher than compound 18 (ALDH3A1 substrate) (Human ALDH3A1 [1]; ratio of Km values): 10 fold; turnover number (kcat) fold higher than compound 18 (ALDH3A1) (Human ALDH3A1 [1]; ratio of kcat values): 26 fold
172 ± 30,133 ± 11,137 ± 14,–,"O=Cc1ccc(-n2ccnc2)cc1 [Compound 6, 4-(1H-Imidazole-1-yl)benzaldehyde]",–
–,–,–,–,"O=Cc1ccc(N2CCCC2)cc1 [Compound 4, 4-(Pyrrolidin-1-yl)benzaldehyde]",remaining ALDH1A1 activity (Human ALDH1A1): 10%
–,–,–,2.37 ± 0.19,"O=Cc1ccc(N2CCOCC2)c(Cl)c1 [Compound 9, 3-Chloro-4-morpholinobenzaldehyde]",IC50 (Human ALDH3A1 [2]): 64.1 ± 6.7 µM
123 ± 29,106 ± 13,61 ± 14,0.3 ± 0.07,"Cc1cc(C=O)ccc1N1CCCCC1 [Compound 15, 3-Methyl-4-(piperidin-1-yl)benzaldehyde]",type of inhibition ALDH1A3 (Human ALDH1A3): competitive; Ki (Human ALDH1A3): < 1 µM
196 ± 4,155 ± 32,82 ± 10,–,"O=Cc1ccc(N2CCOCC2)c(Br)c1 [Compound 22, 3-Bromo-4-morpholinobenzaldehyde]",–
–,–,–,–,4-(Dipropylamino)-2-methoxybenzaldehyde [Compound 38],IC50 (PC3; 96 h exposure): 75 ± 10 µM; IC50 (DU145; 96 h exposure): 71 ± 11 µM; IC50 (LNCaP): 50 ± 3 µM
> 200,> 200,> 200,0.26 ± 0.01,"CC(C)Oc1ccc(C=O)cc1 [Compound 16, 4-Isopropoxybenzaldehyde]","type of inhibition ALDH1A3 (Human ALDH1A3): competitive; Ki (Human ALDH1A3): < 1 µM; ALDH3A1 substrate activity (Human ALDH3A1 [1]; 10 μM compound as substrate, relative to activity with 10 μM 4-NBA (Figure S2)): good ALDH3A1 substrate"
–,–,–,0.27 ± 0.03,"O=Cc1ccc(N2CCCC2)c([N+](=O)[O-])c1 [Compound 34, 3-Nitro-4-(pyrrolidin-1-yl)benzaldehyde]",–
–,–,–,–,4-(Dipropylamino)-3-methoxybenzaldehyde [Compound 17],IC50 (PC3; 96 h exposure): 106 ± 25 µM; IC50 (DU145; 96 h exposure): 103 ± 4 µM; IC50 (LNCaP): 61 ± 18 µM
130 ± 9,110 ± 3,37 ± 1.4,–,"O=Cc1ccc(N2CCCCC2)c(Cl)c1 [Compound 8, 3-Chloro-4-(piperidin-1-yl)benzaldehyde]",–

Compound,IC50 (PC3; [3]) [µM],IC50 (DU145; [4]) [µM],"IC50 (LNCaP; Homo sapiens, LNCaP) [µM]",IC50 (Human ALDH1A3) [µM],also measured
"CN1CCN(c2ccc(C=O)cc2Br)CC1 [Compound 21, 3-Bromo-4-(4-methylpiperazin-1-yl)benzaldehyde]",> 200,187 ± 14,179 ± 14,–,–
